Measurements as given in patent publication US7674819B2 (Warner-Lambert Company LLC, priority 2005, dated 2010).

What follows are compounds tested against T1, hAR (Homo sapiens, UniProt P10275) (assay: Competitive binding of 3H-DHT to baculovirus/Sf9 generated hAR extracts). Settings: IC50, concentration at which one half of maximum binding of 1 nM 3H-DHT to hAR is inhibited; one hour at 4° C.; mean of multiple tests.
T1 sequence (P10275 1-920): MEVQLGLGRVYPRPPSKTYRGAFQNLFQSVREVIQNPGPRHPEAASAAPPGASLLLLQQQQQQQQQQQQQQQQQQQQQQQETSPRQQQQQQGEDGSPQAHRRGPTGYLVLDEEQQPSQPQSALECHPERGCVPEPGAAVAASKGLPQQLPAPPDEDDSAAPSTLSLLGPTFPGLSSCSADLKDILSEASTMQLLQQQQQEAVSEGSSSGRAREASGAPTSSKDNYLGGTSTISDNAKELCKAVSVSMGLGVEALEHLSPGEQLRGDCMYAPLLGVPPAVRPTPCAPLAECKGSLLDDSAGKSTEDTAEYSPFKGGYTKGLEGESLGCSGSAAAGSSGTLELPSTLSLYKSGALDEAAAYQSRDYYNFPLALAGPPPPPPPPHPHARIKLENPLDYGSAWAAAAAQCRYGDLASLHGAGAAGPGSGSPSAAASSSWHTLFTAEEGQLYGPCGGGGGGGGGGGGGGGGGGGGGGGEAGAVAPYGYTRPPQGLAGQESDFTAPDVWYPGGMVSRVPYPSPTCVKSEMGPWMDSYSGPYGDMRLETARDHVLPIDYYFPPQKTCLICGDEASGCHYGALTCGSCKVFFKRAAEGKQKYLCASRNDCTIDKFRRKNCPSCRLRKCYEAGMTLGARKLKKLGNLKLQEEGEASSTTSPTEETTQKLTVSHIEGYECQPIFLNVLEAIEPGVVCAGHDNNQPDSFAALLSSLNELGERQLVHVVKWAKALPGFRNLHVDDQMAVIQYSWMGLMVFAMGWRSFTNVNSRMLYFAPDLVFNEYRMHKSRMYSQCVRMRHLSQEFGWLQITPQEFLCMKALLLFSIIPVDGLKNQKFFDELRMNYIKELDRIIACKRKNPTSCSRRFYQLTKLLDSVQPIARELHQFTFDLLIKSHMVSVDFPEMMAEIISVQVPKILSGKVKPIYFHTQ
Experimental: The description below describes how the assay was carried out.
Competitive binding analysis was performed on baculovirus/Sf9 generated hAR extracts in the presence or absence of different concentrations of test agent and a fixed concentration of ^3H-dihydrotestosterone (^3H-DHT) as tracer. This binding assay method is a modification of a protocol previously described (Liao S., et. al. J. Steroid Biochem. 20:11-17 1984). Briefly, progressively decreasing concentrations of compounds are incubated in the presence of hAR extract (Chang et al. P.N.A.S. Vol. 89, pp. […], 1992), hydroxylapatite, and 1 nM^3H-DHT for one hour at 4° C. Subsequently, the binding reactions are washed three times to completely remove excess unbound ^3H-DHT. hAR bound ^3H-DHT levels are determined in the presence of compounds (i.e. competitive binding) and compared to levels bound when no competitor is present (i.e. maximum binding). Compound binding affinity to the hAR is expressed as the concentration of compound at which one half of the maximum binding is inhibited.

| SMILES | IC50 [nM] |
| --- | --- |
| CC1(C)CNC(=O)C1Oc1ccc(C#N)c(C(F)(F)F)c1 (single isomer, unassigned; (+)) [Example 3, (+)-4-(4,4-Dimethyl-2-oxo-pyrrolidin-3-yloxy)-2-trifluoromethyl-benzonitrile] | 435 |
| CCCN1CC(C)(C)[C@H](Oc2ccc(C#N)c(C(F)(F)F)c2)C1=O [Example 4B, (−)-4-(1-Propyl-4,4-dimethyl-2-oxo-pyrrolidin-3-yloxy)-2-trifluoromethyl-benzonitrile (E1)] | > 10000 |
| COc1ccc(CN2CC(C)(C)C(Oc3ccc(C#N)c(C(F)(F)F)c3)C2=O)cc1 (stereo not drawn) [Example 7, 4-[1-(4-Methoxy-benzyl)-4,4-dimethyl-2-oxo-pyrrolidin-3-yloxy]-2-trifluoromethyl-benzonitrile] | 298 |
| COc1ccccc1CN1CC(C)(C)C(Oc2ccc(C#N)c(C(F)(F)F)c2)C1=O (stereo not drawn) [Example 10, 4-[1-(2-Methoxy-benzyl)-4,4-dimethyl-2-oxo-pyrrolidin-3-yloxy]-2-trifluoromethyl-benzonitrile] | 298 |
| CCCCCN1CC(C)(C)C(Oc2ccc(C#N)c(C(F)(F)F)c2)C1=O (stereo not drawn) [Example 31, 4-(4,4-Dimethyl-2-oxo-1-pentyl-pyrrolidin-3-yloxy)-2-trifluoromethyl-benzonitrile] | 268 |
| CCC(CC)CN1CC(C)(C)C(Oc2ccc(C#N)c(C(F)(F)F)c2)C1=O (stereo not drawn) [Example 33, 4-[1-(2-Ethyl-butyl)-4,4-dimethyl-2-oxo-pyrrolidin-3-yloxy]-2-trifluoromethyl-benzonitrile] | 478 |

Same assay, conditions: concentration at which one half of maximum binding of 1 nM 3H-DHT to hAR is inhibited; one hour at 4° C.; mean of multiple tests; read-out: IC50

| SMILES | IC50 [nM] |
| --- | --- |
| CC1(C)CN(C(=O)c2ccccc2)C(=O)C1Oc1ccc(C#N)c(C(F)(F)F)c1 (racemic) [Example 97, (±) 4-{1-Benzoyl-4,4-dimethyl-2-oxo-pyrrolidin-3-yloxy)-2-trifluoromethyl benzonitrile}] | 311 |
| CCN1CC(C)(C)C(Oc2ccc(C#N)c(C(F)(F)F)c2)C1=O (stereo not drawn) [Example 21, 4-(1-Ethyl-4,4-dimethyl-2-oxo-pyrrolidin-3-yloxy)-2-trifluoromethyl-benzonitrile] | 403 |
| CC1(C)CN(Cc2cccc(C(=O)O)c2)C(=O)C1Oc1ccc(C#N)c(C(F)(F)F)c1 (stereo not drawn) [Example 26, 3-[3-(4-Cyano-3-trifluoromethyl-phenoxy)-4,4-dimethyl-2-oxo-pyrrolidin-1-ylmethyl]-benzoic acid] | 343 |
| CC1(C)CN(CC2CC2)C(=O)C1Oc1ccc(C#N)c(C(F)(F)F)c1 (stereo not drawn) [Example 32, 4-(1-Cyclopropylmethyl-4,4-dimethyl-2-oxo-pyrrolidin-3-yloxy)-2-trifluoromethyl-benzonitrile] | 420 |
| CC1(C)CN(Cc2cccc(C(F)(F)F)c2)C(=O)C1Oc1ccc(C#N)c(C(F)(F)F)c1 (stereo not drawn) [Example 34, 4-[4,4-Dimethyl-2-oxo-1-(3-trifluoromethyl-benzyl)-pyrrolidin-3-yloxy]-2-trifluoromethyl-benzonitrile] | 437 |
| CC1(C)CN(Cc2ccc(SC(F)(F)F)cc2)C(=O)C1Oc1ccc(C#N)c(C(F)(F)F)c1 (stereo not drawn) [Example 36, 4-[4,4-Dimethyl-2-oxo-1-(4-trifluoromethylsulfanyl-benzyl)-pyrrolidin-3-yloxy]-2-trifluoromethyl-benzonitrile] | 484 |
| Cc1ccc(Cc2noc(CN3CC(C)(C)C(Oc4ccc(C#N)c(C(F)(F)F)c4)C3=O)n2)cc1 (stereo not drawn) [Example 43, 4-{4,4-Dimethyl-1-[3-(4-methyl-benzyl)-[1,2,4]oxadiazol-5-ylmethyl]-2-oxo-pyrrolidin-3-yloxy}-2-trifluoromethyl-benzonitrile] | 283 |
| CC1(C)CN(Cc2ccc(S(C)(=O)=O)cc2)C(=O)C1Oc1ccc(C#N)c(C(F)(F)F)c1 (stereo not drawn) [Example 44, 4-[1-(4-Methanesulfonyl-benzyl)-4,4-dimethyl-2-oxo-pyrrolidin-3-yloxy]-2-trifluoromethyl-benzonitrile] | 346 |
| CC1(C)CN(Cc2nc(-c3ccncc3)no2)C(=O)C1Oc1ccc(C#N)c(C(F)(F)F)c1 (stereo not drawn) [Example 49, 4-[4,4-Dimethyl-2-oxo-1-(3-pyridin-4-yl-[1,2,4]oxadiazol-5-ylmethyl)-pyrrolidin-3-yloxy]-2-trifluoromethyl-benzonitrile] | 214 |
| COc1ccccc1-c1nc(CN2CC(C)(C)C(Oc3ccc(C#N)c(C(F)(F)F)c3)C2=O)no1 (stereo not drawn) [Example 51, 4-{1-[5-(2-Methoxy-phenyl)-[1,2,4]oxadiazol-3-ylmethyl]-4,4-dimethyl-2-oxo-pyrrolidin-3-yloxy}-2-trifluoromethyl-benzonitrile] | 321 |
| CC1(C)CN(CC2CCCCC2)C(=O)C1Oc1ccc(C#N)c(C(F)(F)F)c1 (stereo not drawn) [Example 53, 4-(1-Cyclohexylmethyl-4,4-dimethyl-2-oxo-pyrrolidin-3-yloxy)-2-trifluoromethyl-benzonitrile] | 294 |
| Cn1c(CN2CC(C)(C)C(Oc3ccc(C#N)c(C(F)(F)F)c3)C2=O)nc2ccccc21 (stereo not drawn) [Example 55, 4-[4,4-Dimethyl-1-(1-methyl-1H-benzoimidazol-2-ylmethyl)-2-oxo-pyrrolidin-3-yloxy]-2-trifluoromethyl-benzonitrile] | 500 |
| COC(=O)c1ccoc1CN1CC(C)(C)C(Oc2ccc(C#N)c(C(F)(F)F)c2)C1=O (stereo not drawn) [Example 58, 2-[3-(4-Cyano-3-trifluoromethyl-phenoxy)-4,4-dimethyl-2-oxo-pyrrolidin-1-ylmethyl]-furan-3-carboxylic acid methyl ester] | 313 |
| Cc1onc(-c2ccccc2)c1CN1CC(C)(C)C(Oc2ccc(C#N)c(C(F)(F)F)c2)C1=O (stereo not drawn) [Example 59, 4-[4,4-Dimethyl-1-(5-methyl-3-phenyl-isoxazol-4-ylmethyl)-2-oxo-pyrrolidin-3-yloxy]-2-trifluoromethyl-benzonitrile] | 277 |
| CC1(C)CN(Cc2ccc(-n3cncn3)cc2)C(=O)C1Oc1ccc(C#N)c(C(F)(F)F)c1 (stereo not drawn) [Example 62, 4-[4,4-Dimethyl-2-oxo-1-(4-[1,2,4]triazol-1-yl-benzyl)-pyrrolidin-3-yloxy]-2-trifluoromethyl-benzonitrile] | 293 |
| CC1(C)CN(Cc2nc(-c3ccc(C4SCCS4)cc3)no2)C(=O)C1Oc1ccc(C#N)c(C(F)(F)F)c1 (stereo not drawn) [Example 63, 4-{1-[3-(4-[1,3]Dithiolan-2-yl-phenyl)-[1,2,4]oxadiazol-5-ylmethyl]-4,4-dimethyl-2-oxo-pyrrolidin-3-yloxy}-2-trifluoromethyl-benzonitrile] | 500 |
| CC1(C)CN(CC2CCC2)C(=O)C1Oc1ccc(C#N)c(C(F)(F)F)c1 (stereo not drawn) [Example 64, 4-(1-Cyclobutylmethyl-4,4-dimethyl-2-oxo-pyrrolidin-3-yloxy)-2-trifluoromethyl-benzonitrile] | 254 |
| CC1(C)CN(Cc2nc(-c3cccc([N+](=O)[O-])c3)no2)C(=O)C1Oc1ccc(C#N)c(C(F)(F)F)c1 (stereo not drawn) [Example 67, 4-{4,4-Dimethyl-1-[3-(3-nitro-phenyl)-[1,2,4]oxadiazol-5-ylmethyl]-2-oxo-pyrrolidin-3-yloxy}-2-trifluoromethyl-benzonitrile] | 437 |
| Cc1noc(C)c1S(=O)(=O)N1CC(C)(C)C(Oc2ccc(C#N)c(C(F)(F)F)c2)C1=O (stereo not drawn) [Example 76, 4-[1-(3,5-Dimethyl-isoxazole-4-sulfonyl)-4,4-dimethyl-2-oxo-pyrrolidin-3-yloxy]-2-trifluoromethyl-benzonitrile] | 430 |
| Cc1n[nH]c(C)c1S(=O)(=O)N1CC(C)(C)C(Oc2ccc(C#N)c(C(F)(F)F)c2)C1=O (stereo not drawn) [Example 77, 4-[1-(3,5-Dimethyl-1H-pyrazole-4-sulfonyl)-4,4-dimethyl-2-oxo-pyrrolidin-3-yloxy]-2-trifluoromethyl-benzonitrile] | 246 |
| CC(C)S(=O)(=O)N1CC(C)(C)C(Oc2ccc(C#N)c(C(F)(F)F)c2)C1=O (stereo not drawn) [Example 79, 4-[4,4-Dimethyl-2-oxo-1-(propane-2-sulfonyl)-pyrrolidin-3-yloxy]-2-trifluoromethyl-benzonitrile] | 305 |
